From patent US20230023092A1, “TREATMENT OF DEPRESSION AND OTHER VARIOUS DISORDERS WITH PSILOCYBIN” (COMPASS […], priority 2019, published 2023)

Tested on: healthy subjects
Test: Phase 1 study: adverse events (TEAEs, MedDRA coded)
Type: in vivo, human
Experimental: A Phase 1 randomized, double-blind, placebo-controlled study to evaluate the effect of psilocybin on cognitive and emotional processing as compared to placebo in healthy volunteers was conducted. The study investigated the short-term (Day 7) and long-term (Day 28) effects of moderate (10 mg) and high doses (25 mg) of psilocybin on key domains of cognition, such as episodic memory, attention, working and spatial memory, social cognition and elements of executive function, including cognitive flexibility.
Each subject was assigned 1 treatment bottle containing 5 capsules packaged in a double-blind fashion, depending on the randomized treatment arm, the bottle contained one of the following: • a. Psilocybin 10 mg: 2×5-mg oral psilocybin capsules plus 3×placebo capsules • b. Psilocybin 25 mg: 5×5-mg oral psilocybin capsules • c. Placebo: 5×placebo capsules
Each 5-mg oral psilocybin capsules comprised 5 mg crystalline psilocybin in the form or Polymorph A, 12.5 mg of SMCC 50, 79.5 mg of SMCC 90, 1 mg sodium starch glycolate, 1 mg colloidal silicon dioxide, and 1 mg sodium stearyl fumarate
Adverse events: Throughout the course of the study, all AEs were monitored and recorded. Each AE was classified according to the following criteria: • i. […] Moderate: The AE produces some impairment of functioning, but is not hazardous to the subject's health. • iii. Severe: The AE produces significant impairment of functioning or incapacitation and is a definite hazard to the subject's health.
Visit 3 (V3): Drug Administration (Day 0): The subject was asked to eat a light breakfast at least two hours prior to coming to the clinic for study drug administration. On Day 0 (V3), the subject underwent the SSTS, had vital signs obtained, medications reviewed, AEs recorded and eligibility reviewed prior to being randomized to study drug. The study drug was administered to up to six subjects simultaneously in individual beds separated by a curtain. The subject was invited to put on eyeshades and headphones, lie down and listen to calming music for the rest of the session (six hours). The subject was supported 1:1 with a chaperone and supervised by the study psychiatrist and lead therapist.
During administration of psilocybin, each subject received one-on-one support from a trained assisting therapist and each dosing session was supervised by a study psychiatrist and a lead therapist. The study drug was administered simultaneously to up to six participants as a single 5-capsule oral dose (10 mg psilocybin: 2×5-mg psilocybin capsules plus 3×placebo capsules; 25 mg psilocybin: 5×5-mg psilocybin capsules; placebo: 5×placebo capsules). Twenty-five dosing sessions were completed, with up to six participants dosed simultaneously per session. Each session lasted approximately 6 to 8 hours with subjects encouraged to relax and engage in introspection for the duration. After the acute effects of the study drug had subsided, subjects were discharged.

With `CN(C)CCc1c[nH]c2cccc(OP(=O)(O)O)c12` [Psilocybin, psilocybin] the “Illusion, Events” value (25 mg oral) was 26, the “Illusion, N (%)” value (25 mg oral) was 18 (60.0) and the “Illusion, worst severity Mild, Events” value (25 mg oral) was 4. For the same compound, the “Illusion, worst severity Mild, N (%)” value (25 mg oral) was 3 (10.0), the “Illusion, worst severity Moderate, Events” value (25 mg oral) was 12 and the “Illusion, worst severity Moderate, N (%)” value (25 mg oral) was 10 (33.3). For the same compound, the “Illusion, worst severity Severe, Events” value (25 mg oral) was 7, the “Illusion, worst severity Severe, N (%)” value (25 mg oral) was 5 (16.7) and the “Infections and infestations, Events” value (25 mg oral) was 4. For the same compound, the “Infections and infestations, N (%)” value (25 mg oral) was 4 (13.3), the “Infections and infestations, worst severity Mild, Events” value (25 mg oral) was 4 and the “Infections and infestations, worst severity Mild, N (%)” value (25 mg oral) was 4 (13.3). The “Infections and infestations, worst severity Moderate, Events” value (25 mg oral) was 0, the “Infections and infestations, worst severity Moderate, N (%)” value (25 mg oral) was 0 and the “Infections and infestations, worst severity Severe, Events” value (25 mg oral) was 0. The “Infections and infestations, worst severity Severe, N (%)” value (25 mg oral) was 0, the “Investigations, Events” value (25 mg oral) was 1 and the “Investigations, N (%)” value (25 mg oral) was 1 (3.3). The “Investigations, worst severity Mild, Events” value (25 mg oral) was 1, the “Investigations, worst severity Mild, N (%)” value (25 mg oral) was 1 (3.3) and the “Investigations, worst severity Moderate, Events” value (25 mg oral) was 0. For the same compound, the “Investigations, worst severity Moderate, N (%)” value (25 mg oral) was 0, the “Investigations, worst severity Severe, Events” value (25 mg oral) was 0 and the “Investigations, worst severity Severe, N (%)” value (25 mg oral) was 0. The “Memory impairment, Events” value (25 mg oral) was 0, the “Memory impairment, N (%)” value (25 mg oral) was 0 and the “Mental fatigue, Events” value (25 mg oral) was 3. For the same compound, the “Mental fatigue, N (%)” value (25 mg oral) was 3 (10.0), the “Mood altered, Events” value (25 mg oral) was 25 and the “Mood altered, N (%)” value (25 mg oral) was 15 (50.0). For the same compound, the “Mood altered, worst severity Mild, Events” value (25 mg oral) was 3, the “Mood altered, worst severity Mild, N (%)” value (25 mg oral) was 2 (6.7) and the “Mood altered, worst severity Moderate, Events” value (25 mg oral) was 7. For the same compound, the “Mood altered, worst severity Moderate, N (%)” value (25 mg oral) was 6 (20.0), the “Mood altered, worst severity Severe, Events” value (25 mg oral) was 9 and the “Mood altered, worst severity Severe, N (%)” value (25 mg oral) was 7 (23.3). For the same compound, the “Musculoskeletal and connective tissue disorders, Events” value (25 mg oral) was 4, the “Musculoskeletal and connective tissue disorders, N (%)” value (25 mg oral) was 3 (10.0) and the “Musculoskeletal and connective tissue disorders, worst severity Mild, Events” value (25 mg oral) was 3. The “Musculoskeletal and connective tissue disorders, worst severity Mild, N (%)” value (25 mg oral) was 2 (6.7), the “Musculoskeletal and connective tissue disorders, worst severity Moderate, Events” value (25 mg oral) was 1 and the “Musculoskeletal and connective tissue disorders, worst severity Moderate, N (%)” value (25 mg oral) was 1 (3.3). For the same compound, the “Musculoskeletal and connective tissue disorders, worst severity Severe, Events” value (25 mg oral) was 0, the “Musculoskeletal and connective tissue disorders, worst severity Severe, N (%)” value (25 mg oral) was 0 and the “Nausea, Events” value (25 mg oral) was 3. The “Nausea, N (%)” value (25 mg oral) was 3 (10.0), the “Nervous system disorders, Events” value (25 mg oral) was 43 and the “Nervous system disorders, N (%)” value (25 mg oral) was 25 (83.3). The “Nervous system disorders, worst severity Mild, Events” value (25 mg oral) was 24, the “Nervous system disorders, worst severity Mild, N (%)” value (25 mg oral) was 16 (53.3) and the “Nervous system disorders, worst severity Moderate, Events” value (25 mg oral) was 10. For the same compound, the “Nervous system disorders, worst severity Moderate, N (%)” value (25 mg oral) was 8 (26.7), the “Nervous system disorders, worst severity Severe, Events” value (25 mg oral) was 1 and the “Nervous system disorders, worst severity Severe, N (%)” value (25 mg oral) was 1 (3.3). The “Paraesthesia, Events” value (25 mg oral) was 4, the “Paraesthesia, N (%)” value (25 mg oral) was 4 (13.3) and the “Paraesthesia, worst severity Mild, Events” value (25 mg oral) was 3. For the same compound, the “Paraesthesia, worst severity Mild, N (%)” value (25 mg oral) was 3 (10.0), the “Paraesthesia, worst severity Moderate, Events” value (25 mg oral) was 1 and the “Paraesthesia, worst severity Moderate, N (%)” value (25 mg oral) was 1 (3.3). For the same compound, the “Paraesthesia, worst severity Severe, Events” value (25 mg oral) was 0, the “Paraesthesia, worst severity Severe, N (%)” value (25 mg oral) was 0 and the “Psychiatric disorders, Events” value (25 mg oral) was 135. For the same compound, the “Psychiatric disorders, N (%)” value (25 mg oral) was 29 (96.7), the “Psychiatric disorders, worst severity Mild, Events” value (25 mg oral) was 5 and the “Psychiatric disorders, worst severity Mild, N (%)” value (25 mg oral) was 4 (13.3). For the same compound, the “Psychiatric disorders, worst severity Moderate, Events” value (25 mg oral) was 45, the “Psychiatric disorders, worst severity Moderate, N (%)” value (25 mg oral) was 16 (53.3) and the “Psychiatric disorders, worst severity Severe, Events” value (25 mg oral) was 27. For the same compound, the “Psychiatric disorders, worst severity Severe, N (%)” value (25 mg oral) was 9 (30.0), the “Psychomotor skills impaired, Events” value (25 mg oral) was 0 and the “Psychomotor skills impaired, N (%)” value (25 mg oral) was 0. For the same compound, the “Respiratory, thoracic and mediastinal disorders, Events” value (25 mg oral) was 3, the “Respiratory, thoracic and mediastinal disorders, N (%)” value (25 mg oral) was 3 (10.0) and the “Selected TEAE: Nervous system disorders, Events” value (25 mg oral) was 0. For the same compound, the “Selected TEAE: Nervous system disorders, N (%)” value (25 mg oral) was 0, the “Selected TEAE: Psychiatric disorders, Events” value (25 mg oral) was 106 and the “Selected TEAE: Psychiatric disorders, N (%)” value (25 mg oral) was 27 (90.0). The “Somatic hallucination, Events” value (25 mg oral) was 6, the “Somatic hallucination, N (%)” value (25 mg oral) was 5 (16.7) and the “Somatic hallucination, worst severity Mild, Events” value (25 mg oral) was 2. The “Somatic hallucination, worst severity Mild, N (%)” value (25 mg oral) was 2 (6.7), the “Somatic hallucination, worst severity Moderate, Events” value (25 mg oral) was 2 and the “Somatic hallucination, worst severity Moderate, N (%)” value (25 mg oral) was 2 (6.7). The “Somatic hallucination, worst severity Severe, Events” value (25 mg oral) was 2, the “Somatic hallucination, worst severity Severe, N (%)” value (25 mg oral) was 1 (3.3) and the “Substance-induced psychotic disorder, Events” value (25 mg oral) was 1. The “Substance-induced psychotic disorder, N (%)” value (25 mg oral) was 1 (3.3), the “Tension headache, Events” value (25 mg oral) was 6 and the “Tension headache, N (%)” value (25 mg oral) was 6 (20.0). For the same compound, the “Tension headache, worst severity Mild, Events” value (25 mg oral) was 4, the “Tension headache, worst severity Mild, N (%)” value (25 mg oral) was 4 (13.3) and the “Tension headache, worst severity Moderate, Events” value (25 mg oral) was 2. The “Tension headache, worst severity Moderate, N (%)” value (25 mg oral) was 2 (6.7), the “Tension headache, worst severity Severe, Events” value (25 mg oral) was 0 and the “Tension headache, worst severity Severe, N (%)” value (25 mg oral) was 0. For the same compound, the “Time perception altered, Events” value (25 mg oral) was 6, the “Time perception altered, N (%)” value (25 mg oral) was 6 (20.0) and the “Time perception altered, worst severity Mild, Events” value (25 mg oral) was 2. The “Time perception altered, worst severity Mild, N (%)” value (25 mg oral) was 2 (6.7), the “Time perception altered, worst severity Moderate, Events” value (25 mg oral) was 4 and the “Time perception altered, worst severity Moderate, N (%)” value (25 mg oral) was 4 (13.3). For the same compound, the “Time perception altered, worst severity Severe, Events” value (25 mg oral) was 0, the “Time perception altered, worst severity Severe, N (%)” value (25 mg oral) was 0 and the “Adverse events reported by % of subjects” value (25 mg oral, 12-week study) was 96.7%. For the same compound, the “Reported 'Mood altered' events: Being less judgmental (number)” value (25 mg psilocybin (n = 30)) was 0, the “Reported 'Mood altered' events: Calm (number)” value (25 mg psilocybin (n = 30)) was 0 and the “Reported 'Mood altered' events: Clarity of thought (number)” value (25 mg psilocybin (n = 30)) was 1. The “Reported 'Mood altered' events: Contemplative state (number)” value (25 mg psilocybin (n = 30)) was 1, the “Reported 'Mood altered' events: Feeling more moody/sensitive (number)” value (25 mg psilocybin (n = 30)) was 0 and the “Reported 'Mood altered' events: Feeling of adrenaline release (number)” value (25 mg psilocybin (n = 30)) was 0. The “Reported 'Mood altered' events: Feeling rested (number)” value (25 mg psilocybin (n = 30)) was 0, the “Reported 'Mood altered' events: Increased compassion (number)” value (25 mg psilocybin (n = 30)) was 1 and the “Reported 'Mood altered' events: Increased creativity (number)” value (25 mg psilocybin (n = 30)) was 1. The “Reported 'Mood altered' events: Increased empathy (number)” value (25 mg psilocybin (n = 30)) was 2, the “Reported 'Mood altered' events: Increased sense of connectedness (number)” value (25 mg psilocybin (n = 30)) was 1 and the “Reported 'Mood altered' events: Increased wit (number)” value (25 mg psilocybin (n = 30)) was 0. The “Reported 'Mood altered' events: Introspection (number)” value (25 mg psilocybin (n = 30)) was 8, the “Reported 'Mood altered' events: Laughter (number)” value (25 mg psilocybin (n = 30)) was 1 and the “Reported 'Mood altered' events: More socially upbeat (number)” value (25 mg psilocybin (n = 30)) was 1. The “Reported 'Mood altered' events: Negative mood (number)” value (25 mg psilocybin (n = 30)) was 0, the “Reported 'Mood altered' events: Reflections (number)” value (25 mg psilocybin (n = 30)) was 4 and the “Reported 'Mood altered' events: Saw themselves from a new perspective (number)” value (25 mg psilocybin (n = 30)) was 1. The “Reported 'Mood altered' events: Sense of oneness (number)” value (25 mg psilocybin (n = 30)) was 2, the “Reported 'Mood altered' events: Sense of openness (number)” value (25 mg psilocybin (n = 30)) was 0 and the “Reported 'Mood altered' events: Unusual appreciation of music (number)” value (25 mg psilocybin (n = 30)) was 0. For the same compound, the “Adverse events that appeared and resolved on day 0 (day of dosing)” value (all adverse events, all arms) was 67%, the “'mood altered' AEs positive or neutral in nature” value (all arms) was 96% and the “Median duration of adverse events” value (all treatment arms, 12-week trial) was “one”. For the same compound, the “Incidence of Illusion, Hallucination (visual), Mood altered, Headache, Fatigue and Euphoric mood compared to placebo” value (both 10 and 25 mg) was “higher” and the “Adverse events likely to be psychedelic in nature resolved on the day of onset or within a day of onset” value (human, in vivo, oral, 12 weeks) was 92%.
